Data on three compounds can be found in patent US7842802B2, “Vinorelbine derivatives” (priority 2003, dated 2010).

Data set [1] relates to HeLa S-3 human cervical carcinoma cell line. Put plainly: HeLa GI50 determination (SRB). Format: cell-based. The conditions noted are these: Homo sapiens, HeLa S3, 48 h; HeLa S-3, 2 days of treatment, SRB; read-out: HeLa Cells GI50. Here is the method: Growth inhibition (GI50) values were measured on the human cervical carcinoma cell line, HeLa S-3, which were selected for growth on plastic. The HeLa cell assay was based on the description of Skehan et al., J. Natl. Cancer Inst., 82:1107-12 (1990), which is hereby incorporated by reference in its entirety. HeLa cells were plated at 2×10^4 cells/well in 96 well plates. One day later, a control plate was fixed by the addition of TCA to 5%. After five rinses with tap water, the plate was air-dried and stored at 4° C. Test compounds were added to the remaining plates at 10-fold dilutions. Two days later, all plates were fixed as described above. Cells were then stained by the addition of 100 μL per well of 0.4% sulforhodamine B (SRB) in 1% acetic acid for 30 min at 4° C. Wells were then quickly rinsed 5× with 1% acetic acid and allowed to air dry. The SRB was then solubilized by the addition of 100 μL per well of unbuffered 10 mM Tris base. Dye was quantified by measuring absorbance at 490 nm on a Molecular Devices microplate reader. Growth inhibition was calculated according to the following equation: GI=100×(T−T0)/(C−T0), where the optical density (OD) of the test well after 2 days of treatment was T, the OD of the wells in the control plate on day 0 was T0 and C was the OD of untreated wells. Plots of percent growth inhibition versus inhibitor concentration were used to determine the GI50.

Data set [2] has as its system MCF-7 human breast carcinoma line. Put plainly: MCF-7 GI50 determination (crystal violet). The class given is cell-based. The conditions noted are these: Homo sapiens, MCF7, 96 h; MCF-7, 4 days of treatment, crystal violet; read-out: MCF-7 Cells GI50. Here is the method:
Growth inhibition (GI50) values were measured on the human breast carcinoma line, MCF-7. MCF-7 cells were plated at 2×10^4 cells/well in 96 well plates and grown for 24 hours in drug free media. On day 2, test compounds were added to the plates at 10-fold dilutions. Four days later, cells were fixed by the addition of glutaraldehyde to 0.75%. After 30 min, the fixed cells were extensively rinsed with distilled water and dried at room temperature for one hour. The cells were then stained with a 0.2% crystal violet solution for one hour at room temperature. Unbound stain was removed by ten rinses with tap water and plates were allowed to air dry for 30 min. The crystal violet was then solubilized by the addition of 10% acetic acid for 15 min and quantified by measuring absorbance at 570 nm on a Molecular Devices microplate reader. Growth inhibition was calculated according to the following equation: GI=[…], where the optical density (OD) of the test well after 4 days of treatment was T, the OD of the wells in the control plate on day 0 was T0. Plots of percent growth inhibition versus inhibitor concentration were used to determine the GI50.

Molecules are shown by their SMILES. Counter-ions that a name gives are not always drawn.

What is called melting point is the temperature of the solid-liquid transition. The GI50 is the concentration giving 50% growth inhibition.

Regarding `CCC1=C[C@H]2CN(C1)Cc1c([nH]c3ccc(SCCC(=O)OC)cc13)[C@@](C(=O)OC)(c1cc3c(cc1OC)N(C)[C@H]1[C@@](O)(C(=O)OC)[C@H](OC(C)=O)C4C(CC)=CCN5CC[C@]31[C@H]45)C2` (some centres unmarked) (as salt: tartrate) [Example 7, 11′-(methoxycarbonylethylsulfanyl) vinorelbine], the melting point is 140 to 170 °C (dec.).
In the case of `CCC1=C[C@H]2CN(C1)Cc1c([nH]c3ccc(-c4ccccc4)cc13)[C@@](C(=O)OC)(c1cc3c(cc1OC)N(C)[C@H]1[C@@](O)(C(=O)OC)[C@H](OC(C)=O)C4C(CC)=CCN5CC[C@]31[C@H]45)C2` (some centres unmarked) [Example 30, 11′-phenylvinorelbine], the GI50 in data set [1] turned out to be 70 nM; in data set [2] it was 300 nM.
For `CCC1=C[C@H]2CN(C1)Cc1c([nH]c3ccc(-c4cccc(O)c4)cc13)[C@@](C(=O)OC)(c1cc3c(cc1OC)N(C)[C@H]1[C@@](O)(C(=O)OC)[C@H](OC(C)=O)C4C(CC)=CCN5CC[C@]31[C@H]45)C2` (some centres unmarked) [Example 31, 11′-(3-hydroxyphenyl) vinorelbine] the same measures were 300 nM and 600 nM.
